pIC50: −log10 of the molar value.
Tests used:
aldehyde oxidase (AO) [1] = molecular target: T1, aldehyde oxidase (AO) (Homo sapiens (Human), UniProt Q06278); assay: in vitro
Method: All calculations were carried out using Microsoft Excel. Peak areas were determined from extracted ion chromatograms. The slope value, k, was determined by linear regression of the natural logarithm of the remaining percentage of the parent drug vs. incubation time curve.

PIK3Cβ (p110β) = PIK3Cβ (p110β) (Homo sapiens (Human), UniProt P42338); assay: PI3K biochemical potency assay (Assay c), PIK3Cβ; settings: read-out: PI3Kβ IC50
Method: Assay c): PI3K Biochemical Potency
(§1) 2.5 μl of kinase solution was added to each well of the 384-well assay plate, which contains 2.5 μl of compounds with serially diluted concentration. 2× substrate solution was prepared with PIP2 substrate and ATP in 1× kinase reaction buffer at 2-fold of the final concentration of each reagent in the assay. 5 μl of substrate solution was added to each well of the assay plate to start reaction. The assay plate was incubated at room temperature for 1 hour. 5 μl reaction mix was transferred to a new 384 well plate. 5 μl of ADP-Glo reagent (Promega, Cat. No. v9102/3) was added to each well of the new assay plate to stop the reaction. The plate was shaken slowly and equilibrated for 40 minutes. 10 μl kinase detection reagents were added to each well, which was equilibrated for 60 minutes before read on a plate reader (Envision) for luminescence.

ATM = ATM (Homo sapiens (Human), UniProt Q13315); assay: biochemical; format: biochemical; settings: read-out: ATM IC50
Excerpt: Assay a): ATM Biochemical Potency
Data was collected by Caliper.

PI3Kα (p110α/p85a) = PI3Kα (p110α/p85a) (Homo sapiens (Human), UniProt P42336); assay: PI3K biochemical potency assay (Assay c), PI3Kα; settings: read-out: PI3Kα IC50
Method: Assay c): PI3K Biochemical Potency
as §1

ATR = ATR (Homo sapiens (Human), UniProt Q13535); assay: ATR biochemical potency assay (Assay b)
Method: Assay b): ATR Biochemical Potency
The plate was incubated at room temperature for 10 minutes. 2× peptide solutions were prepared with FAM-labeled peptide and ATP in the 1× kinase base buffer. […] 40 μl of stop buffer was added to stop reaction. Data were collected by Caliper.

DNA-PK = DNA-PK (Homo sapiens (Human), UniProt P78527); assay: DNA-PK biochemical assay (Assay e)
Method: Assay e): DNA-PK Biochemical Assay
The final concentration: Substrate 0.2 ug/ml and ATP 20 uM. […] The plate was equilibrated for 2 hr at room temperature.

PIK3Cγ (pp110γ) = PIK3Cγ (pp110γ) (Homo sapiens (Human), UniProt P48736); assay: PI3K biochemical potency assay (Assay c), PIK3Cγ; settings: read-out: PI3Kγ IC50
Method: Assay c): PI3K Biochemical Potency
as §1

[2] = system: phosp-KAP1 in MCF-7 cells; assay: phosp-KAP1 MCF-7 cellular potency assay (Assay f); format: cell-based; settings: Homo sapiens, MCF7; MCF-7 cells, etoposide; read-out: Etoposide MCF-7 cellular IC50
PIK3Cδ = PIK3Cδ (Homo sapiens (Human), UniProt O00329); assay: PI3K biochemical potency assay (Assay c), PIK3Cδ; settings: read-out: PI3Kδ IC50
Method: Assay c): PI3K Biochemical Potency
as §1

[3] = molecular target: ATM (phospho-ATM Ser1981) in SN38 treated HT-29 cells (Homo sapiens (Human), UniProt Q13315); assay: cell-based; settings: HT-29 cells, SN-38; read-out: SN-38 HT-29 cellular IC50
Method: Assay g): ATM SN-38 HT-29 Cellular Potency
SN38 causes single strand DNA breaks (SSBs) which are converted to double strand breaks (DSBs) during replication. ATM plays role of repairing DSBs. Inhibition of ATM was evaluated in SN38 treated HT-29 cells (ATCC, Cat #HTB-38) by high-Content Imaging System
The graphical views were then generated using Prism 7.0 (Graphpad).

mTOR = mTOR (Homo sapiens (Human), UniProt P42345); assay: mTOR biochemical potency assay (Assay d); settings: read-out: mTor IC50
Method: Assay d): mTOR Biochemical Potency
Solution of mTOR enzymes (Millipore, Cat. No. 14-770) was prepared in 1× kinase buffer at 4-fold of the final concentration (final concentration: 6 nM) in the assay. 2.5 μl of kinase solution was added to each well of the 384-well assay plate, which contains 2.5 μl of compounds with serially diluted concentration. 2× substrate solution was prepared with ULight-4E-BP1 (Thr37/46) Peptide (PE, Cat. No. TRF0128-M) and ATP in 1× kinase reaction buffer at 2-fold of the final concentration of each reagent in the assay. 5 μl of substrate solution was added to each well of the assay plate to start reaction. The assay plate was incubated at room temperature for 30 minutes. Detection solution of kinase quench buffer (EDTA) and Eu-anti-phospho-4E-BP1 antibody (Thr37/46) (PE, Cat. No. TRF0216-M) were prepared at 2-fold the desired final concentrations of each reagent in Lance detection buffer. 10 μl of detection solution buffer was added to each well of the assay plate.

aldehyde oxidase (AO) [4] = molecular target: T1, aldehyde oxidase (AO); settings: reference compounds of the human liver cytosolic system; cited from earlier work
[5] = cited from earlier work; for clearance in humans: Zientek et al. 2010

T1 sequence (Q06278 whole entry): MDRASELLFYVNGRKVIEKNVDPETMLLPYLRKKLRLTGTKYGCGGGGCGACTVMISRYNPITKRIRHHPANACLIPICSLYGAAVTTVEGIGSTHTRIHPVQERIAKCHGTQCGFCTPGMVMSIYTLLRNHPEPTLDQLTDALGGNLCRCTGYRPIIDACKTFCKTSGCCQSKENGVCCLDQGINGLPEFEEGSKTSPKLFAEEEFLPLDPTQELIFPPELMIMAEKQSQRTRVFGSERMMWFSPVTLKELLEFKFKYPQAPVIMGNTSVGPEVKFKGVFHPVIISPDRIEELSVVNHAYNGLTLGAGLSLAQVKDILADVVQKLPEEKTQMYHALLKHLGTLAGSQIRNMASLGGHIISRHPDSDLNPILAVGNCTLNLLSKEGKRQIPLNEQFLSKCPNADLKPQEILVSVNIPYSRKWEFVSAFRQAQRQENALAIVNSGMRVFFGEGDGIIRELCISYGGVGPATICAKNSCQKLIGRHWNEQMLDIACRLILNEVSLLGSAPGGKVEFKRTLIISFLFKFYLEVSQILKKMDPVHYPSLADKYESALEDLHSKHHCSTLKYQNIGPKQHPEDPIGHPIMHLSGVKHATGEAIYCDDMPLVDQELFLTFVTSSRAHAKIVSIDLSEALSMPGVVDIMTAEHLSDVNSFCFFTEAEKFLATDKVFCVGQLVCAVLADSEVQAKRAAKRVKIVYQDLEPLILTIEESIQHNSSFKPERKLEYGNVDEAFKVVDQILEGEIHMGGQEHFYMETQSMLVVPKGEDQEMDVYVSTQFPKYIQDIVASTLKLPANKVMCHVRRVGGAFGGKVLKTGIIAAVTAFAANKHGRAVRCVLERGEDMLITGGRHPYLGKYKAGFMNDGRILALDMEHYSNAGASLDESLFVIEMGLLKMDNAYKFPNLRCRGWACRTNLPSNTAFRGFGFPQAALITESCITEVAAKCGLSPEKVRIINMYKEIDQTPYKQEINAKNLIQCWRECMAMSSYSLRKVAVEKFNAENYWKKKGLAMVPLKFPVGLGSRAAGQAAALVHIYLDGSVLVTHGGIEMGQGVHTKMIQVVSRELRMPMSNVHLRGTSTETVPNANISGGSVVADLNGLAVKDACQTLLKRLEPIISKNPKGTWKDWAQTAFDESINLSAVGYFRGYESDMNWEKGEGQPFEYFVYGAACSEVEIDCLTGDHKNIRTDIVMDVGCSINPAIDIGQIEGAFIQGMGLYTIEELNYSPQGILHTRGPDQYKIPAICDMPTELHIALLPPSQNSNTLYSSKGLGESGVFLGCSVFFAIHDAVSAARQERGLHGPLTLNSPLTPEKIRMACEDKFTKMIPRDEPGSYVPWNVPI
Sequence of ATM (Q13315 whole entry, looked up): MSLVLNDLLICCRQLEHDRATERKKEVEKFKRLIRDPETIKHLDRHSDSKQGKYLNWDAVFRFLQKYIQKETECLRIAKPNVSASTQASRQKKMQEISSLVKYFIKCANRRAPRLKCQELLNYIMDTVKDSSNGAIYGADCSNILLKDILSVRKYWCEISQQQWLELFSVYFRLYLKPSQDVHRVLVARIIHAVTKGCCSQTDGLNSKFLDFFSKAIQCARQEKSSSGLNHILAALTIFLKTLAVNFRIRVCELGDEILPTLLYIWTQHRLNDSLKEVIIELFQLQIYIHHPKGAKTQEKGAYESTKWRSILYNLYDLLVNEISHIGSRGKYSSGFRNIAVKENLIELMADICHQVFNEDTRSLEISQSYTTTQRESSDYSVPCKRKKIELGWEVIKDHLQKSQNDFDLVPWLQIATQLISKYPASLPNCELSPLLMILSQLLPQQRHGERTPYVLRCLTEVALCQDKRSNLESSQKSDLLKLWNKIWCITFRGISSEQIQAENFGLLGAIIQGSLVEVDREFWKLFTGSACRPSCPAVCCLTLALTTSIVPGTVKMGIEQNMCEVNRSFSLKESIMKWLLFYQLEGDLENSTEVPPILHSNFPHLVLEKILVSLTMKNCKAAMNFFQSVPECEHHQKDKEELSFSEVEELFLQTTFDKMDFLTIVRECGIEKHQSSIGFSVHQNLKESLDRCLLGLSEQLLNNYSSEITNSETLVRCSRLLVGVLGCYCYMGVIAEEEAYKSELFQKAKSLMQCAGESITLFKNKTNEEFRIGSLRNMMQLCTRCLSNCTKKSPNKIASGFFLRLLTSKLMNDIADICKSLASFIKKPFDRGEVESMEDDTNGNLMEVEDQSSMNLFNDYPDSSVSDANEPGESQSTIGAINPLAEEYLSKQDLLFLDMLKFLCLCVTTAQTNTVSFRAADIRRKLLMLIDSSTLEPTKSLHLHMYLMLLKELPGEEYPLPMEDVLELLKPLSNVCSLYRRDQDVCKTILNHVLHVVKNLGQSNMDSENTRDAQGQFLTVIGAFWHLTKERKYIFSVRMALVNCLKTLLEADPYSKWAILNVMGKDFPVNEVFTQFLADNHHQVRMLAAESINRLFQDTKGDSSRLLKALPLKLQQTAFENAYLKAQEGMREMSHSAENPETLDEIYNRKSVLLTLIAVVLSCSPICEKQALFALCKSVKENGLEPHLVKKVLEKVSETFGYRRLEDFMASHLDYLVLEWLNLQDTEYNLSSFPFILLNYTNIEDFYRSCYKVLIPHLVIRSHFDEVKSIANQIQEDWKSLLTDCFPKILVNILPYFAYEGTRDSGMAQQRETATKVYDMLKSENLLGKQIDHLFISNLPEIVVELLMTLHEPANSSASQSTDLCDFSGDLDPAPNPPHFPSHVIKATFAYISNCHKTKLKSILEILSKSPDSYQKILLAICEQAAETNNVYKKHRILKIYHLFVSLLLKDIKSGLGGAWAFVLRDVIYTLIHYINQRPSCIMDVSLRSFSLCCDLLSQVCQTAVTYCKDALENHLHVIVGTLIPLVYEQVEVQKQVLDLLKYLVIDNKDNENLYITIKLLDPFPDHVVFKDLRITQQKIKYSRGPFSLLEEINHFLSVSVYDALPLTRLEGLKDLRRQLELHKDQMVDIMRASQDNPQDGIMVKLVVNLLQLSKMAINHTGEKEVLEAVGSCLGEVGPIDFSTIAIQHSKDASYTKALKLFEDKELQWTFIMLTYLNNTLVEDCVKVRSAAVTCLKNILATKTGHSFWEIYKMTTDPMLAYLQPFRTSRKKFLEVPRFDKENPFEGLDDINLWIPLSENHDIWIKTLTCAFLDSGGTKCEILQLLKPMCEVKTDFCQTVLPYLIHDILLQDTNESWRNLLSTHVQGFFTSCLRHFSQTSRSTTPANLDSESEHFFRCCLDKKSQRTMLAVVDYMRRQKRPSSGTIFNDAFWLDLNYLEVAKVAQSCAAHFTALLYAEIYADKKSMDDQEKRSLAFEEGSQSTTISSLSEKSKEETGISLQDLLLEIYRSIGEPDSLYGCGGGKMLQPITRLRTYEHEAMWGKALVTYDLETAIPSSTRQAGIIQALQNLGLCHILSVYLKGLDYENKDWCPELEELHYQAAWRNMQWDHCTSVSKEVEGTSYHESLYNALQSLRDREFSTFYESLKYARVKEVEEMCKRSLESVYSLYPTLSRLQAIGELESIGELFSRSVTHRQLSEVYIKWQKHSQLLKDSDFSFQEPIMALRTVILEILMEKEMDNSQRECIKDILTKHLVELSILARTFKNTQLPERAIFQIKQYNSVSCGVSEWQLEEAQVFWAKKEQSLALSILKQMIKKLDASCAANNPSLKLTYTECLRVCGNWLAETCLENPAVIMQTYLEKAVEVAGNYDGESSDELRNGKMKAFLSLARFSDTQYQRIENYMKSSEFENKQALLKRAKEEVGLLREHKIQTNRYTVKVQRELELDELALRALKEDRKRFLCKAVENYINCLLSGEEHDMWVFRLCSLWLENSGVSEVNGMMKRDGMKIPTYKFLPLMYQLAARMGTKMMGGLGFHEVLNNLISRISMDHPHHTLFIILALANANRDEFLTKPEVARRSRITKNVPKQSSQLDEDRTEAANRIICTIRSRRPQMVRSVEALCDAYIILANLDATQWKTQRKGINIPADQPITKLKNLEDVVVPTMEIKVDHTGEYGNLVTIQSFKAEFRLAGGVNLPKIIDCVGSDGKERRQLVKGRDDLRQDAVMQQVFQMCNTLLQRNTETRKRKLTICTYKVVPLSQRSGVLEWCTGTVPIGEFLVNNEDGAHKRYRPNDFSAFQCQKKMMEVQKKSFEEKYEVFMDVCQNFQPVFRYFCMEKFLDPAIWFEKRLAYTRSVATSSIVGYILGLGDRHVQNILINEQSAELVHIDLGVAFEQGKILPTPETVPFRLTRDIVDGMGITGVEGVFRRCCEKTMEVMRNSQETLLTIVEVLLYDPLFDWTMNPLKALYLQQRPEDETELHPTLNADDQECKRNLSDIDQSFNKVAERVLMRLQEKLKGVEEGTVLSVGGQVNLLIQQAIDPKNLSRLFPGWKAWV
Sequence of ATM (phospho-ATM Ser1981) in SN38 treated HT-29 cells (Q13315 whole entry, looked up): as above

With CC(C)n1c(=O)n(C)c2cnc3cc(F)c(-c4ccc(OCCCN5CCCCC5)nc4)cc3c21 [AZD1390] the AO substrate classification (aldehyde oxidase (AO) [1]; human liver cytosol) was “strong AO substrate”.
Compound CC(C)n1c(=O)n(C)c2nnc3ccc(-c4ccc(COCCN5CCC(C)(C)CC5)nc4)cc3c21 [Example 31, 8-(6-((2-(4,4-dimethylpiperidin-1-yl)ethoxy)methyl)pyridin-3-yl)-1-isopropyl-3-methyl-1H-imidazo[4,5-c]cinnolin-2(3H)-one] has a pIC50 (PIK3Cβ (p110β)) of less than 5.00, a pIC50 (ATM) of 7.96 and a pIC50 (PI3Kα (p110α/p85a)) of less than 5.00. The pIC50 (ATR) was less than 5.00, the pIC50 (DNA-PK) was less than 5.00 and the pIC50 (PIK3Cγ (pp110γ)) was less than 5.00. The pIC50 [2] was 7.80, the pIC50 (PIK3Cδ) was less than 5.00 and the pIC50 [3] was 7.54. For the same compound, the pIC50 (mTOR) was less than 5.00.
In the case of OCCn1cc(-c2cnc3nnn(Cc4ccc5ncccc5c4)c3n2)cn1 [PF-04217903, 2-[4-[3-(quinolin-6-ylmethyl)triazolo[4,5-b]pyrazin-5-yl]pyrazol-1-yl]ethanol], the “AO substrate classification (reported)” value (aldehyde oxidase (AO) [4]) is listed as “weak AO substrate”.
In the case of CCN(C(C)=O)c1cccc(-c2ccnc3c(C#N)cnn23)c1 [Reference compound 4, Zaleplon], the microsomal CLint (aldehyde oxidase (AO) [1]; human, cytosol) is listed as 0.893 µL/min/mg, the clearance in humans [5] is listed as 16 mL/min/kg and the “clearance in humans corresponding to liver blood flow” value [5] is listed as roughly 80 % liver blood flow.
In the case of OCCn1cc(-c2cnc3nnn(Cc4ccc5ncccc5c4)c3n2)cn1 [Reference compound 5, PF-04217903], the clearance in humans [5] is listed as 6 mL/min/kg and the “clearance in humans corresponding to liver blood flow” value [5] is listed as roughly 30 % liver blood flow.
For CCN(C(C)=O)c1cccc(-c2ccnc3c(C#N)cnn23)c1 [Zaleplon, N-[3-(3-cyanopyrazolo[1,5-a]pyrimidin-7-yl)phenyl]-N-ethylacetamide], the “AO substrate classification (reported)” value (aldehyde oxidase (AO) [4]) is given as “strong AO substrate”.

Reference: patent US20240207263A1, “SELECTIVE MODULATORS OF ATAXIA TELA[…] (ATM) KINASE AND USES THEREOF” (priority 2021, published 2024)
